Experimental data reported in patent publication US20250339520A1, “COMPOSITIONS AND METHODS FOR USE IN KRAS-TARGETED THERAPIES FOR THE TREATMENT OF CANCER” (RUTGERS, THE STATE UNIVERSITY OF NEW JERSEY, priority 2024, published 2025).

Columns and labels:
[1] = tested on: KPC [1860], Mia PaCa-2, and Panc 04.03 PDAC cells; assay: Cancer spheroid formation under KRASi; format: cell-based, mouse and human
Description: (§1) Human cell lines MIA PaCa-2 and Panc 04.03 were purchased from the American Type Culture Collection (ATCC) and cultured in DMEM supplemented with 10% FBS and RPMI supplemented with 15% FBS and 20 Units/ml human recombinant insulin, respectively. Mouse PDAC cells were isolated from spontaneous tumors developed in iKPC or KPC mice. KPC cell lines were sustained in RPMI (Gibco) with 10% FBS (Gibco), while iKPC cell lines were cultured in RPMI with 10% Tet-approved FBS (Gibco) and doxycycline (VWR, […]). Escaper tumor cell lines were maintained in RPMI with 10% Tet-approved FBS (Gibco). For cancer spheroid culture, cells were mixed with 50 L growth factor-reduced Matrigel (Corning) and plated in 24-well low-attachment cell culture plates (Nunc). Medium was added on top of the solidified Matrigel. We monitored both spheroid size and number for spheroid growth assays. For counting spheroid numbers, we used a cut-off of 100 m in diameter or specified, depending on the time and cell type. For measuring spheroid size, ImageJ was used. Monthly mycoplasma detection (Lonza) was performed to ensure the absence of contamination.

[2] = tested on: AsPC-1; assay: Cancer spheroid formation under KRASi, SMAD4-deficient cells; format: cell-based, human; conditions: for Response of spheroid formation to TGFβ1 or TGFβRi: SMAD4-deficient, under G12Di MRTX1133, TGFβ 0.5 ng/ml, SB505124 1 μM
[3] = tested on: KRAS*-independent escaper tumor cell lines from iKPC mice; assay: KRAS*-independent escaper spheroid growth; format: cell-based, mouse; conditions: SB505124 3 μM; hybrid or QM-like phenotype
Description: as §1

[4] = tested on: iKPC PDAC cells; assay: Cancer spheroid formation, TGFβ-driven KRAS* bypass; format: cell-based, mouse
Description: as §1

[5] = tested on: S100a4 promoter; assay: Luciferase reporter assay under the S100a4 promoter; format: cell-based, mouse; conditions: KRAS*-depleted iKPC PDAC cells
Description: Mouse S100a4 promoter was cloned into pGL4.12[iluc2CP] vector (Promega). Renilla luciferase vector (Promega) was used as the internal control. pGL4.12 vector and Renilla luciferase vector were co-transfected into iKPC PDAC cells using Lipofectamine 2000 (Invitrogen). After 24 hours, the medium was replaced, and cells were subjected to various treatments for an additional 24 hours. Subsequently, cells were collected for luciferase reporter assay using the Dual-Luciferase Reporter Assay Kit (Promega) according to the manufacturer's instructions. The firefly luciferase signal was normalized to Renilla luciferase prior to comparison among different treatment groups.

[6] = tested on: iKPC PDAC cells; assay: Gene expression changes in iKPC cells post TGFβ treatment; format: cell-based, mouse
Description: (§2) RNA extraction from 2-D or 3-D cultured cell samples was conducted using the RNA Extraction Kit from Qiagen. Matrigel-based 3-D cells were isolated using Cell Recovery Solution from Corning. RNA concentration was assessed using NanoDrop 2000. The RNA samples were either sent for RNA-seq analysis to the Genomic Center at Rutgers or Genewiz (Azenta), or reverse transcribed for qRT-PCR analysis. The preparation of cDNA utilized 5× All-In-One RT MasterMix from Applied Biological Materials, and the PCR reactions were prepared with SYBR Green PCR Master Mix from Applied Biosystems or Bio-Rad. qRT-PCR was executed on the CFX Opus 96 (Bio-Rad), with statistical analysis conducted using GraphPad Prism. For mRNA sequencing, the parameters were NGS-75 nt Paired End, utilizing the Illumina Next Generation Sequencing instrument.

[7] = tested on: iKPC spheroids; assay: Western blot of S100A4, NFAT5 and EMT TFs in iKPC cells/spheroids; format: cell-based, mouse; conditions: TGFβ
Description: (§3) Antibody information can be found in Table 2. Western blot analysis, IP, co-IP, and IHC staining were conducted following standard protocols. Human TMA slides were purchased from Biomax. Cell fractionation and Masson's Trichrome Staining were carried out using commercial kits, adhering to manufacturers' protocols. MS analysis of proteins pulled down by endogenous SMAD2, SMAD3, SMAD4, NFAT5, and IgG was performed by the Proteomics Core Facility at Rutgers New Jersey Medical School. Specifically, IP samples were subjected to SDS-PAGE separation. Each sample's gel lane was excised for in-gel trypsin digestion, and the resulting peptides were analyzed using LC-MS/MS on an Orbitrap Fusion Lumos Tribrid mass spectrometer coupled with the Ultimate 3000 nano-LC system (Thermo Scientific). MS/MS spectra were searched against the UniProt mouse database (55,336 sequences, downloaded 8/30/2021) using the Sequest search engine through the Proteome Discoverer platform (version 2.4) with a false discovery rate less than 1% for both proteins and peptides. Protein abundance ratios were determined using the Label-Free Quantitation (LFQ) method.

[8] = tested on: KPC PDAC cells; assay: Orthotopically transplanted KPC PDAC model with pancreatitis induction; format: in vivo, mouse
Description: (§4) For allograft or xenograft tumor models, human or mouse PDAC cells were transplanted orthotopically or subcutaneously into recipient C57BL/6 or nude mice at a concentration of 500,000 cells per injection, as specified in the figures. The cells were resuspended in Opti-MEM and combined with growth factor-reduced Matrigel (Corning) at a 1:1 ratio.
(§5) For bioluminescence imaging, each mouse received a 100 L injection of D-Luciferin (15 mg/mL, i.p., Perkin Elmer). After a 10-minute interval, mice were imaged using the IVIS Spectrum Imaging System, and images were acquired and analyzed using Living Image 4.3 software.

[9] = tested on: NFAT5; assay: Western blot of NFAT5 expression under KRN2; format: cell-based; conditions: PDAC cells, dose-dependent western blot
Description: as §3

[10] = tested on: KPC PDAC cells; assay: KPC transplanted (allograft) model, KRN2 and MRTX1133; format: in vivo
Description: as §4, §5

[11] = tested on: MIA PaCa-2; assay: MIA PaCa-2 orthotopic xenograft model; format: in vivo
Description: as §4

[12] = tested on: KRAS*-independent escaper tumor cells E725; assay: Escaper tumor growth, E725 cells subcutaneous in nude mice; format: in vivo, mouse; conditions: KRN2 3 mg/kg QD vs vehicle; day 28
Description: as §4

[13] = tested on: iKPC spheroids; assay: RNA-seq / GSEA in TGFβ-treated, KRAS*-depleted iKPC spheroids; format: cell-based, mouse; conditions: inhibition of NFAT5 by KRN2
Description: as §2
GSEA was performed using GSEA software (4.3.2).

[14] = tested on: iKPC mice; assay: Pancreatitis-induced spontaneous tumor relapse in iKPC mice; format: in vivo, mouse; conditions: CAE 100 μg/kg after dox withdrawal (KRAS* off); less than or around a year after treatment; control mice remained tumor-free
Description: The iKPC and KPC PDAC mouse models were established and described previously^7,19. They were bred in pure C57BL/6 background. Doxycycline (dox) water (2 mg/mL, ad libitum) was administrated at 4-6 weeks of mouse age to activate transgenic KRAS^G12D expression in iKPC mice. The C57BL/6 mice and nude mice of both sexes were purchased from the Jackson Laboratory and employed to ensure matching sexes of the cell lines.
For the induction of spontaneous tumor relapse in iKPC mice, the withdrawal of dox water was performed to cease KRAS* expression when the tumor diameter reached approximately 1 cm.

Compound: Cc1cccc(-c2[nH]c(C(C)(C)C)nc2-c2ccc3c(c2)OCO3)n1 [SB505124]
- Cancer spheroid formation, TGFβRi combined with KRASi ([1]; SB505124 3 μM with MRTX1133 (KPC, Panc 04.03) or ARS-1620 (MIA PaCa-2)): eradication of cancer spheroids
- Response of spheroid formation to TGFβ1 or TGFβRi [2]: did not exhibit a response
- Sensitivity of escaper spheroids to TGFβRi [3]: hypersensitivity

Compound: TGFβ1: recombinant human and mouse TGFβ1 (Peprotech)
- KRAS* bypass in spheroid assays ([4]; TGFβ1 treatment, KRAS* off): efficiently promoted several iKPC PDAC cell lines to bypass KRAS*
- KRAS* bypass in spheroid assays, iKPC cell lines 251, 276 ([4]; TGFβ1 treatment, cell lines with higher Cdkn2a and Cdkn2b expression): unable to bypass KRAS*
- Formation of cancer spheroids resistant to KRASi ([1]; TGFβ 0.5 ng/ml with MRTX1133 or ARS-1620, cells with intact TGFβ pathway): actively promoted the formation of cancer spheroids resistant to KRASi
- Response of spheroid formation to TGFβ1 or TGFβRi [2]: did not exhibit a response
- S100a4 promoter luciferase activity under TGFβ [5]: activated S100a expression
- Ccl2 expression elevation ([6]; TGFβ treatment, KRAS*-depleted iKPC PDAC cells): more than 700 fold
- S100a4 expression ([6]; TGFβ, KRAS*-depleted iKPC spheroids): upregulated
- NFAT5 protein level [7]: upregulates NFAT5
- S100A4 protein level ([7]; cancer spheroids): upregulation of S100A4

Compound: C#Cc1c(F)ccc2cc(O)cc(-c3ncc4c(N5CC6CCC(C5)N6)nc(OC[C@@]56CCCN5C[C@H](F)C6)nc4c3F)c12 [MRTX1133]
- Tumor growth under G12Di with pancreatitis induction ([8]; MRTX1133 10 mg/kg BID + CAE 100 μg/kg): leads to resistance
- Tumor growth, G12Di vs vehicle ([8]; MRTX1133 10 mg/kg, BID): significantly reduces tumor growth

Compound: recombinant S100A4 protein: recombinant mouse S100A4 (R&D) added to the culture media
- Rescue of TGFβ-induced, KRAS*-independent cancer spheroid growth ([4]; added to culture media after NFAT5 inhibition (KRN2 1 μM) or knockdown of Nfat5 or S100a4): rescued TGFβ-induced, KRAS*-independent cancer spheroid growth

Compound: COc1ccc2c(Cc3ccccc3F)c3[n+](cc2c1OC)CCc1cc2c(cc1-3)OCO2.[Cl-] [KRN2]
- Concentration at which Nfat5 expression is suppressed [9]: higher than 0.3 μM
- TGFβ-driven KRAS* bypass (spheroid formation) ([4]; KRN2 1 μM, TGFβ 0.5 ng/ml, three iKPC cell lines): impairment of TGFβ-driven KRAS* bypass
- KRASi persistent cancer spheroid formation ([1]; KRN2 1 μM + MRTX1133 0.03 μM (KPC), KRN2 0.3 μM + ARS-1620 5 μM (MIA PaCa-2)): attenuation of KRASi persistent cancer spheroid formation
- KRASi persistent cancer spheroid formation, SMAD4-deficient cells ([2]; KRN2 0.3 μM + MRTX1133 0.3 μM): excluding SMAD4-deficient cancer spheroid formation
- Chronic pancreatitis-induced KRASi resistance ([8]; MRTX1133 10 mg/kg BID + CAE 100 μg/kg + KRN2 3 mg/kg QD, KPC 1860, day 21): blockage of chronic pancreatitis-induced KRASi resistance
- Mouse allograft tumor growth ([10]; KRN2 3 mg/kg QD in combination with MRTX1133 10 mg/kg QD): inhibition of mouse allograft tumor growth in combination with KRASi
- Mouse survival ([10]; KRN2 monotherapy 3 mg/kg QD, immune-competent mice): prolonged mouse survival
- Tumor differentiation (H&E) ([10]; KRN2 vs vehicle control): induced tumor differentiation
- Systemic toxicity (mouse body weight) ([10]; allograft model, during treatment): minimal systemic toxicities
- Human xenograft tumor growth ([11]; KRN2 3 mg/kg QD with G12Ci MRTX849 100 mg/kg QD, day 28): reduction of human xenograft tumor growth cooperatively with KRASi
- Systemic toxicity (mouse body weight) ([11]; xenograft model, during treatment): minimal systemic toxicities
- Escaper tumor growth in vivo [12]: restriction of escaper tumor growth in vivo
- Gene sets upregulated (GSEA) [13]: upregulating genes associated with fatty acid metabolism and mTORC1 signaling
- Gene signatures suppressed (GSEA) [13]: suppressed EMT and NFxB gene signatures

Compound: caerulein
- CAE-treated mice that developed escaper tumors [14]: at least 36%
- Tumor growth, CAE vs vehicle control ([8]; CAE 100 μg/kg, C57BL/6 mice, BLI, tumor weight, tumor volume): promotes KPC PDAC tumor growth
- Tumor morphology (H&E) ([8]; CAE;G12Di-treated tumors relative to vehicle;G12Di controls): lost the ductal-like phenotype and were more undifferentiated
- Tumor progression, CAE;G12Di vs vehicle;G12Di ([8]; independent study, MRTX1133 10 mg/kg BID, CAE 100 μg/kg): significantly faster tumor progression
- SMAD3 phosphorylation and EMT transcription factors in collected tumors (western blot) ([8]; tumors under MRTX1133): induced SMAD3 phosphorylation and the upregulation of EMT transcription factors (TFs) such as SNAI2, ZEB1, and ZEB2
